Data from article PMC10006169, “A phase I trial of LXS196, a protein kinase C (PKC) inhibitor, for metastatic uveal melanoma” (British Journal of Cancer, 2023).

Test system: patients with MUM
Assay: Adverse events regardless of study drug relationship
Assay type: in vivo, human
Method: Routine safety assessments, including laboratory assessments, physical examinations, vital signs and electrocardiograms (ECGs), were conducted at regular intervals throughout the study and more frequently as needed following patient assessment by the treating physician. Adverse events (AEs) were assessed continuously according to the National Cancer Institute Common Terminology Criteria for Adverse Events (NCI-CTCAE) v4.03.

## CC1(N)CCN(c2cccnc2NC(=O)c2nc(-c3ncccc3C(F)(F)F)cnc2N)CC1 [LXS196]
100 mg QD
  ALT increased, all grades: 0 n (%)
  ALT increased, grade ≥3: 0 n (%)
  AST increased, all grades: 0 n (%)
  AST increased, grade ≥3: 0 n (%)
  Abdominal pain upper, all grades: 0 n (%)
  Abdominal pain upper, grade ≥3: 0 n (%)
  Asthenia, all grades: 0 n (%)
  Asthenia, grade ≥3: 0 n (%)
  Blood creatinine increased, all grades: 0 n (%)
  Blood creatinine increased, grade ≥3: 0 n (%)
  Constipation, all grades: 1 (33.3) n (%)
  Constipation, grade ≥3: 0 n (%)
  Decreased appetite, all grades: 0 n (%)
  Decreased appetite, grade ≥3: 0 n (%)
  Dermatitis acneiform, all grades: 0 n (%)
  Dermatitis acneiform, grade ≥3: 0 n (%)
  Diarrhoea, all grades: 2 (66.7) n (%)
  Diarrhoea, grade ≥3: 0 n (%)
  Dry skin, all grades: 0 n (%)
  Dry skin, grade ≥3: 0 n (%)
  Fatigue, all grades: 0 n (%)
  Fatigue, grade ≥3: 0 n (%)
  Hypotension, all grades: 0 n (%)
  Hypotension, grade ≥3: 0 n (%)
  Nasopharyngitis, all grades: 0 n (%)
  Nasopharyngitis, grade ≥3: 0 n (%)
  Nausea, all grades: 2 (66.7) n (%)
  Nausea, grade ≥3: 0 n (%)
  Neutropenia, all grades: 0 n (%)
  Neutropenia, grade ≥3: 0 n (%)
  Oedema peripheral, all grades: 1 (33.3) n (%)
  Oedema peripheral, grade ≥3: 0 n (%)
  Patients with ≥1 AE, all grades: 3 (100) n (%)
  Patients with ≥1 AE, grade ≥3: 0 n (%)
  Rash, all grades: 0 n (%)
  Rash, grade ≥3: 0 n (%)
  Vomiting, all grades: 2 (66.7) n (%)
  Vomiting, grade ≥3: 0 n (%)
200 mg BID
  ALT increased, all grades: 1 (16.7) n (%)
  ALT increased, grade ≥3: 0 n (%)
  AST increased, all grades: 1 (16.7) n (%)
  AST increased, grade ≥3: 0 n (%)
  Abdominal pain upper, all grades: 0 n (%)
  Abdominal pain upper, grade ≥3: 0 n (%)
  Asthenia, all grades: 1 (16.7) n (%)
  Asthenia, grade ≥3: 0 n (%)
  Blood creatinine increased, all grades: 3 (50.0) n (%)
  Blood creatinine increased, grade ≥3: 0 n (%)
  Constipation, all grades: 1 (16.7) n (%)
  Constipation, grade ≥3: 0 n (%)
  Decreased appetite, all grades: 1 (16.7) n (%)
  Decreased appetite, grade ≥3: 0 n (%)
  Dermatitis acneiform, all grades: 1 (16.7) n (%)
  Dermatitis acneiform, grade ≥3: 0 n (%)
  Diarrhoea, all grades: 3 (50.0) n (%)
  Diarrhoea, grade ≥3: 0 n (%)
  Dry skin, all grades: 1 (16.7) n (%)
  Dry skin, grade ≥3: 0 n (%)
  Fatigue, all grades: 0 n (%)
  Fatigue, grade ≥3: 0 n (%)
  Hypotension, all grades: 0 n (%)
  Hypotension, grade ≥3: 0 n (%)
  Nasopharyngitis, all grades: 1 (16.7) n (%)
  Nasopharyngitis, grade ≥3: 0 n (%)
  Nausea, all grades: 3 (50.0) n (%)
  Nausea, grade ≥3: 0 n (%)
  Neutropenia, all grades: 1 (16.7) n (%)
  Neutropenia, grade ≥3: 0 n (%)
  Oedema peripheral, all grades: 2 (33.3) n (%)
  Oedema peripheral, grade ≥3: 0 n (%)
  Patients with ≥1 AE, all grades: 6 (100) n (%)
  Patients with ≥1 AE, grade ≥3: 3 (50.0) n (%)
  Rash, all grades: 0 n (%)
  Rash, grade ≥3: 0 n (%)
  Vomiting, all grades: 0 n (%)
  Vomiting, grade ≥3: 0 n (%)
200 mg QD
  ALT increased, all grades: 1 (25.0) n (%)
  ALT increased, grade ≥3: 0 n (%)
  AST increased, all grades: 0 n (%)
  AST increased, grade ≥3: 0 n (%)
  Abdominal pain upper, all grades: 0 n (%)
  Abdominal pain upper, grade ≥3: 0 n (%)
  Asthenia, all grades: 1 (25.0) n (%)
  Asthenia, grade ≥3: 0 n (%)
  Blood creatinine increased, all grades: 1 (25.0) n (%)
  Blood creatinine increased, grade ≥3: 0 n (%)
  Constipation, all grades: 3 (75.0) n (%)
  Constipation, grade ≥3: 0 n (%)
  Decreased appetite, all grades: 1 (25.0) n (%)
  Decreased appetite, grade ≥3: 0 n (%)
  Dermatitis acneiform, all grades: 0 n (%)
  Dermatitis acneiform, grade ≥3: 0 n (%)
  Diarrhoea, all grades: 2 (50.0) n (%)
  Diarrhoea, grade ≥3: 0 n (%)
  Dry skin, all grades: 0 n (%)
  Dry skin, grade ≥3: 0 n (%)
  Fatigue, all grades: 0 n (%)
  Fatigue, grade ≥3: 0 n (%)
  Hypotension, all grades: 0 n (%)
  Hypotension, grade ≥3: 0 n (%)
  Nasopharyngitis, all grades: 0 n (%)
  Nasopharyngitis, grade ≥3: 0 n (%)
  Nausea, all grades: 2 (50.0) n (%)
  Nausea, grade ≥3: 1 (25.0) n (%)
  Neutropenia, all grades: 0 n (%)
  Neutropenia, grade ≥3: 0 n (%)
  Oedema peripheral, all grades: 1 (25.0) n (%)
  Oedema peripheral, grade ≥3: 0 n (%)
  Patients with ≥1 AE, all grades: 4 (100) n (%)
  Patients with ≥1 AE, grade ≥3: 3 (75.0) n (%)
  Rash, all grades: 0 n (%)
  Rash, grade ≥3: 0 n (%)
  Vomiting, all grades: 2 (50.0) n (%)
  Vomiting, grade ≥3: 1 (25.0) n (%)
